Measured values published in patent publication US20250367267A1, “TREATING AUTOIMMUNE DISEASES WITH INSULIN-LIKE GROWTH FACTOR 1 RECEPTOR LIGAND CONJUGATED TO AN AGENT” (Lirum Therapeutics, Inc., priority 2022, published 2025).
“Also recorded” adds a separate entry of the source.

Legend:
[1] = system: CD19+ B cells and CD3+ T cells in the peripheral blood of SLE patients; settings: Jacobi et al 2010; cited from earlier work
[2] = system: IGF-1R+ subpopulations of PBMCs from patients with SLE, RA and SSc; assay: Effect of LX-101 on IGF-1R+ PBMC subpopulations (percentage of live IGF-1R+ cells by flow cytometry); format: cell-based, human; settings: 17 μM LX-101, three days
Text: Frozen peripheral blood mononuclear cells (PBMCs) were obtained from Discovery Life Sciences from patients diagnosed with lupus, rheumatoid arthritis, and scleroderma. One sample was obtained from a person diagnosed with systemic lupus erythematosus (SLE) undergoing active treatment with methotrexate, Celebrex, prednisone, and Benlysta. A second sample was obtained from a person diagnosed with scleroderma (SSc) before receiving treatment. A third sample was obtained from a person diagnosed with rheumatoid arthritis (RA) undergoing active treatment with Nabumetone. All samples were collected following informed consent. The PBMCs were thawed, washed, and resuspended in AIM V media with 5% human AB serum (hAB) at a concentration of 1×10^6 cells/mL. PBMCs were seeded in a 24 well plate (1×10^6 cells/well) and treated with a 17 μM of LX-101 or hydrochloric acid (HCl) as a vehicle control. LX-101 was supplied at a concentration of 4 mM (where the concentration is expressed in terms of the amount of methotrexate in the drug) in 10 mM HC1. The vehicle control groups received the same concentration of HCl as that in the LX-101 solution received by the treatment group. PBMCs were incubated at 37° C. with 5% CO2 for three days. After the three day incubation with LX-101 or the vehicle control, the PBMCs were blocked with human TruStain FcX Fc receptor blocking solution, and stained with an antibody mixture with markers shown in Table 2. Cells were fixed and flow cytometric data were collected for 50,000 live cell events using a BD LSRFortessa X-20 flow cytometer. Data were analyzed with Kaluza software. The effect of LX-101 was analyzed for both the bulk PBMC and IGF-1R^+ subpopulations. The percentages of live, B cells, CD4^+ T cells, CD8^+ T cells, NK cells, and NKT cells were determined.

[3] = system: bulk subpopulations of PBMCs from patients with SLE, RA and SSc; assay: Effect of LX-101 on bulk PBMC subpopulations (percentage of live cells by flow cytometry); format: cell-based, human; settings: 17 μM LX-101, three days
Text: Frozen peripheral blood mononuclear cells (PBMCs) were obtained from Discovery Life Sciences from patients diagnosed with lupus, rheumatoid arthritis, and scleroderma. One sample was obtained from a person diagnosed with systemic lupus erythematosus (SLE) undergoing active treatment with methotrexate, Celebrex, prednisone, and Benlysta. A second sample was obtained from a person diagnosed with scleroderma (SSc) before receiving treatment. A third sample was obtained from a person diagnosed with rheumatoid arthritis (RA) undergoing active treatment with Nabumetone. All samples were collected following informed consent.
The PBMCs were thawed, washed, and resuspended in AIM V media with 5% human AB serum (hAB) at a concentration of 1×10^6 cells/mL. PBMCs were seeded in a 24 well plate (1×10^6 cells/well) and treated with a 17 μM of LX-101 or hydrochloric acid (HCl) as a vehicle control. […]
After the three day incubation with LX-101 or the vehicle control, the PBMCs were blocked with human TruStain FcX Fc receptor blocking solution, and stained with an antibody mixture with markers shown in Table 2. […] Data were analyzed with Kaluza software.
The effect of LX-101 was analyzed for both the bulk PBMC and IGF-1R^+ subpopulations. The percentages of live, B cells, CD4^+ T cells, CD8^+ T cells, NK cells, and NKT cells were determined.

IGFBPs = settings: known in the art (U.S. Pat. No. 4,876,242; Francis et al. 1992); cited from earlier work
IGF-1R = IGF-1R (Homo sapiens, UniProt P08069); settings: Hakuno et al. 2018; cited from earlier work
[4] = PBMCs from SLE, RA and SSc patients

Sequence of IGF-1R (P08069 31-736 limits assumed, species assumed): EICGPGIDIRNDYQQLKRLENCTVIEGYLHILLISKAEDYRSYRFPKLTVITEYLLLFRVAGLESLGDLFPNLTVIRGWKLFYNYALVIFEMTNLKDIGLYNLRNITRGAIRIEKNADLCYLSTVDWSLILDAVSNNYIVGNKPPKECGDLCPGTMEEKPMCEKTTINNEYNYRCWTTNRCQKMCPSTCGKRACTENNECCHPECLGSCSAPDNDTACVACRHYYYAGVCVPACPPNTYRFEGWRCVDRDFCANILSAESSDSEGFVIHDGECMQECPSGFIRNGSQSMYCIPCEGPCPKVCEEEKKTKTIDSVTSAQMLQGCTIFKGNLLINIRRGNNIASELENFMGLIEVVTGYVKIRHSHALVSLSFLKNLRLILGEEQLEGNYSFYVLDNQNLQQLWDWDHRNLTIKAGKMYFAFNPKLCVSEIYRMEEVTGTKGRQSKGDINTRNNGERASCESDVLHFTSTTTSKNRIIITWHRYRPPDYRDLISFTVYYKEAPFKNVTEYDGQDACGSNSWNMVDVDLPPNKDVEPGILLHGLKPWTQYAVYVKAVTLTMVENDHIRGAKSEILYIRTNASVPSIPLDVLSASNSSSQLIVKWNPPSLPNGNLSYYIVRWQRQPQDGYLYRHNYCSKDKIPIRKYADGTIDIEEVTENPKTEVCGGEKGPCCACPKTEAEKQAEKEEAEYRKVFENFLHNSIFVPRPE
Sequence of IGF-1R (P08069 741-1367 partner limits assumed, species assumed): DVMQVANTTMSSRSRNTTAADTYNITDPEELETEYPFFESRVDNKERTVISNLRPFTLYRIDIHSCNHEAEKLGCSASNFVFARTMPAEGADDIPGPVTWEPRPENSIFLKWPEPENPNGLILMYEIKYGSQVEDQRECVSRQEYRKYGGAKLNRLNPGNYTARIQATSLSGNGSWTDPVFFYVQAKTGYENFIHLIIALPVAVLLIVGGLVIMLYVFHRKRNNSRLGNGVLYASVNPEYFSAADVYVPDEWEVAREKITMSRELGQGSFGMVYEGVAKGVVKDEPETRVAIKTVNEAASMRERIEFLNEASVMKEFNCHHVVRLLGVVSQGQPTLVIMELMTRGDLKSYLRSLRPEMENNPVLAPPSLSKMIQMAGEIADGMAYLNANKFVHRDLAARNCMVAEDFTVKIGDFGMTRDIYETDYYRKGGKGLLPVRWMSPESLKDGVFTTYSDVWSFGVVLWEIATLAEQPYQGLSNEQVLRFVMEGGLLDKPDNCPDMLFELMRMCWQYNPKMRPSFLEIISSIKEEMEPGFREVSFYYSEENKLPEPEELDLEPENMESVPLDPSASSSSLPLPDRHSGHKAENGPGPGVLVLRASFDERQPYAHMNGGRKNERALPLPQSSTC

In the case of “Benlysta: a B lymphocyte stimulator (BLyS)-specific inhibitor”, the “number of CD3+ T cells” value [1] is given as “not affected” and the “total CD19+ B cells in the peripheral blood” value [1] is given as “decrease”.

For LX-101, the “percentage of IGF-1R+CD19+ B cells vs vehicle control” value [2, 4] was “reduced percentages; also recorded: reduction”, the “percentage of live IGF-1R+ cells (all subpopulations) vs vehicle control” value [2, 4] was “marked reductions; also recorded: Reduced percentages” and the “IGF-1R+CD3+CD8+ T cells vs vehicle control” value ([2]; SLE, RA and SSc samples) was “reduction; also recorded: reduced percentages”. For the same molecule, the “IGF-1R+CD56+CD3+ natural killer T (NKT) cells vs vehicle control” value ([2]; SLE, RA and SSc samples) was “modest reduction; also recorded: reduced percentages”, the “IGF-1R+CD3+CD4+ T cells vs vehicle control” value ([2]; SLE, RA and SSc samples, especially RA sample) was “substantial reduction; also recorded: reduced percentages” and the “IGF-1R+CD56+CD3− natural killer (NK) cells vs vehicle control” value ([2]; particularly samples from SLE and RA patients) was “reduction; also recorded: reduced percentages”. For the same molecule, the “off-target effects in IGF-1R− cells” value [3] was “Little off-target effects” and the “percentage of live B cells, CD4+ T cells, CD8+ T cells, NK cells and NKT cells in the bulk PBMC population, vs vehicle control” value [3] was “Little difference”.

For “R3-IGF-1: glutamic acid in position 3 of native human IGF-1 is substituted by arginine”, the “binding affinity for IGFBPs compared to wildtype IGF-1” value (IGFBPs) is given as “reduced binding affinity”.

For “des (1-3) IGF-1: lacks the first three amino acids of human IGF-1”, the “binding affinity for IGFBPs compared to wildtype IGF-1” value (IGFBPs) is given as “reduced binding affinity”.

In the case of “insulin: native ligand to the IGF-1R; two chains connected by disulfide bonds”, the “affinity for IGF-1R, fold lower than the IGFs” value (IGF-1R) is given as 50- to 100 fold.

B1: IGF132: first 17 amino acids of the B chain of insulin replace the first 16 amino acids of human IGF-1 (protein)
chain: FVNQHLCGSHLVEALYLVCGDRGFYFNKPTGYGSSSRRAPQTGIVDECCFRSCDLRRLEMYCAPLKPAKSA
In the case of B1, the “binding affinity for IGFBPs compared to wildtype IGF-1” value (IGFBPs) is listed as “reduced binding affinity”.
